Assay: mn = molality of the nth substance listed, in mol/kg
Settings: 101 kPa, Liquid; for speed of sound: Sing-around technique in a fixed-path interferometer; for mass density: Vibrating tube method

O=C([O-])CC(O)(CC(=O)O)C(=O)O.[K+] [potassium dihydrogen citrate] + O
Settings | mass density [kg/m3] | speed of sound [m/s]
283.15 K, m1 = 0.0063 | 1000.47 | 1448.8
283.15 K, m1 = 0.0186 | 1001.97 | 1450.1
283.15 K, m1 = 0.0314 | 1003.53 | 1451.5
283.15 K, m1 = 0.0407 | 1004.65 | 1452.5
283.15 K, m1 = 0.0561 | 1006.52 | 1454.2
283.15 K, m1 = 0.0574 | 1006.67 | 1454.3
283.15 K, m1 = 0.0868 | 1010.19 | 1457.2
283.15 K, m1 = 0.0905 | 1010.65 | 1457.9
283.15 K, m1 = 0.1399 | 1016.4 | 1462.9
283.15 K, m1 = 0.1655 | 1019.36 | 1465.4
283.15 K, m1 = 0.284 | 1032.79 | 1477
283.15 K, m1 = 0.396 | 1044.96 | 1487.4
283.15 K, m1 = 0.4766 | 1053.37 | 1494.6
283.15 K, m1 = 0.5861 | 1064.69 | 1504.1
283.15 K, m1 = 0.5922 | 1065.27 | 1504.7
283.15 K, m1 = 0.7578 | 1081.71 | 1518.5
288.15 K, m1 = 0.0063 | 999.861 | 1466.9
288.15 K, m1 = 0.0186 | 1001.34 | 1468.2
288.15 K, m1 = 0.0314 | 1002.87 | 1469.5
288.15 K, m1 = 0.0407 | 1003.98 | 1470.4
288.15 K, m1 = 0.0561 | 1005.82 | 1472
288.15 K, m1 = 0.0574 | 1005.97 | 1472.1
288.15 K, m1 = 0.0868 | 1009.45 | 1475
288.15 K, m1 = 0.0905 | 1009.9 | 1475.4
288.15 K, m1 = 0.1399 | 1015.58 | 1480.1
288.15 K, m1 = 0.1655 | 1018.5 | 1482.5
288.15 K, m1 = 0.284 | 1031.76 | 1493.4
288.15 K, m1 = 0.396 | 1043.8 | 1503.1
288.15 K, m1 = 0.4766 | 1052.13 | 1509.8
288.15 K, m1 = 0.5861 | 1063.34 | 1518.9
288.15 K, m1 = 0.5922 | 1063.9 | 1519.4
288.15 K, m1 = 0.7578 | 1080.19 | 1532.5
293.15 K, m1 = 0.0063 | 998.956 | 1483.1
293.15 K, m1 = 0.0186 | 1000.41 | 1484.3
293.15 K, m1 = 0.0314 | 1001.93 | 1485.5
293.15 K, m1 = 0.0407 | 1003.03 | 1486.4
293.15 K, m1 = 0.0561 | 1004.84 | 1487.9
293.15 K, m1 = 0.0574 | 1004.99 | 1488
293.15 K, m1 = 0.0868 | 1008.42 | 1490.7
293.15 K, m1 = 0.0905 | 1008.87 | 1491
293.15 K, m1 = 0.1399 | 1014.48 | 1495.5
293.15 K, m1 = 0.1655 | 1017.37 | 1497.7
293.15 K, m1 = 0.284 | 1030.49 | 1507.8
293.15 K, m1 = 0.396 | 1042.41 | 1517
293.15 K, m1 = 0.4766 | 1050.65 | 1523.3
293.15 K, m1 = 0.5861 | 1061.76 | 1531.8
293.15 K, m1 = 0.5922 | 1062.33 | 1532.3
293.15 K, m1 = 0.7578 | 1078.48 | 1544.7
298.15 K, m1 = 0.0063 | 997.788 | 1497.3
298.15 K, m1 = 0.0186 | 999.232 | 1498.5
298.15 K, m1 = 0.0314 | 1000.73 | 1499.6
298.15 K, m1 = 0.0407 | 1001.82 | 1500.4
298.15 K, m1 = 0.0561 | 1003.61 | 1501.8
298.15 K, m1 = 0.0574 | 1003.75 | 1501.9
298.15 K, m1 = 0.0868 | 1007.15 | 1504.4
298.15 K, m1 = 0.0905 | 1007.6 | 1504.7
298.15 K, m1 = 0.1399 | 1013.15 | 1508.8
298.15 K, m1 = 0.1655 | 1016 | 1510.9
298.15 K, m1 = 0.284 | 1029 | 1520.5
298.15 K, m1 = 0.396 | 1040.81 | 1529
298.15 K, m1 = 0.4766 | 1048.98 | 1535
298.15 K, m1 = 0.5861 | 1060 | 1543
298.15 K, m1 = 0.5922 | 1060.56 | 1543.5
298.15 K, m1 = 0.7578 | 1076.59 | 1555.2
303.15 K, m1 = 0.0063 | 996.385 | 1509.7
303.15 K, m1 = 0.0186 | 997.809 | 1510.7
303.15 K, m1 = 0.0314 | 999.297 | 1511.8
303.15 K, m1 = 0.0407 | 1000.37 | 1512.5
303.15 K, m1 = 0.0561 | 1002.15 | 1513.8
303.15 K, m1 = 0.0574 | 1002.29 | 1513.9
303.15 K, m1 = 0.0868 | 1005.65 | 1516.3
303.15 K, m1 = 0.0905 | 1006.09 | 1516.6
303.15 K, m1 = 0.1399 | 1011.59 | 1520.5
303.15 K, m1 = 0.1655 | 1014.43 | 1522.4
303.15 K, m1 = 0.284 | 1027.31 | 1531.4
303.15 K, m1 = 0.396 | 1039.02 | 1539.4
303.15 K, m1 = 0.4766 | 1047.12 | 1545
303.15 K, m1 = 0.5861 | 1058.06 | 1552.6
303.15 K, m1 = 0.5922 | 1058.61 | 1553
303.15 K, m1 = 0.7578 | 1074.53 | 1564.2
308.15 K, m1 = 0.0063 | 994.762 | 1520.3
308.15 K, m1 = 0.0186 | 996.176 | 1521.3
308.15 K, m1 = 0.0314 | 997.649 | 1522.3
308.15 K, m1 = 0.0407 | 998.709 | 1523
308.15 K, m1 = 0.0561 | 1000.47 | 1524.2
308.15 K, m1 = 0.0574 | 1000.61 | 1524.3
308.15 K, m1 = 0.0868 | 1003.95 | 1526.5
308.15 K, m1 = 0.0905 | 1004.38 | 1526.8
308.15 K, m1 = 0.1399 | 1009.84 | 1530.4
308.15 K, m1 = 0.1655 | 1012.65 | 1532.3
308.15 K, m1 = 0.284 | 1025.42 | 1540.7
308.15 K, m1 = 0.396 | 1037.05 | 1548.2
308.15 K, m1 = 0.4766 | 1045.1 | 1553.5
308.15 K, m1 = 0.5861 | 1055.95 | 1560.7
308.15 K, m1 = 0.5922 | 1056.5 | 1561.1
308.15 K, m1 = 0.7578 | 1072.31 | 1571.6

— the NIST ThermoML archive (doi:10.1021/je700288s)
